{"source": "patent US20250042900A1", "about": "(priority 2022, published 2025)", "key": {"serotonin transporter": {"target": "T1, serotonin transporter (Homo sapiens, UniProt P31645)", "T1 construct": "expressed in transfected cells", "assay": "cell-based", "details": "SERT, blocker, read-out: IC50 (μM) Antag./Blocker/Inhibitor"}, "[1]": {"target": "T2, 5-Hydroxytryptamine (Serotonin) Receptor 1B (5-HT1B) (Homo sapiens, UniProt P28222)", "T2 construct": "host or cells: cAMP Hunter cell line", "assay": "cAMP secondary messenger assay, antagonist format", "type": "cell-based", "details": "read-out: IC50 (μM) Antag./Blocker/Inhibitor"}, "[2]": {"target": "5-Hydroxytryptamine (Serotonin) Receptor 2A (5-HT2A) (Homo sapiens, UniProt P28223)", "assay": "Calcium flux secondary messenger assay, antagonist format", "type": "cell-based", "details": "read-out: IC50 (μM) Antag./Blocker/Inhibitor"}, "[3]": {"target": "5-Hydroxytryptamine (Serotonin) Receptor 2B (5-HT2B) (Homo sapiens, UniProt P41595)", "assay": "Calcium flux secondary messenger assay, antagonist format", "type": "cell-based", "details": "read-out: IC50 (μM) Antag./Blocker/Inhibitor"}, "[4]": {"target": "T3, 5-Hydroxytryptamine (Serotonin) Receptor 1A (5-HT1A) (Homo sapiens, UniProt P08908)", "T3 construct": "host or cells: cAMP Hunter cell line", "T3 sequence (P08908 whole entry)": "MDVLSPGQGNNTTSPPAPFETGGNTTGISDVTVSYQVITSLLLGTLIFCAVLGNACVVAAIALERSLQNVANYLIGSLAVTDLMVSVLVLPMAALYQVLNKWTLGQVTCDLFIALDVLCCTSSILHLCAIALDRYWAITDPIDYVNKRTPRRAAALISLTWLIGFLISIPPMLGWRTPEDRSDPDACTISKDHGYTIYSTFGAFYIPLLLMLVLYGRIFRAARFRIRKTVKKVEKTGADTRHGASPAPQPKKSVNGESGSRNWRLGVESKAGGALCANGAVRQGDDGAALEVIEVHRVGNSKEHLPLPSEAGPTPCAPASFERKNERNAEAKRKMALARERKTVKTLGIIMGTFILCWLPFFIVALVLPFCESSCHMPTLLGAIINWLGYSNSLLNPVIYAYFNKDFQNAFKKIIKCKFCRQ", "assay": "cAMP secondary messenger assay, antagonist format", "type": "cell-based", "details": "read-out: IC50 (μM) Antag./Blocker/Inhibitor"}, "[5]": {"target": "Adrenergic Receptor α1A (ADRA1A) (Homo sapiens, UniProt P35348)", "assay": "Calcium flux secondary messenger assay, agonist format", "type": "cell-based", "details": "read-out: EC50 (μM) Agonist/Opener"}, "[6]": {"target": "T4, Adrenergic Receptor α2A (ADRA2A) (Homo sapiens, UniProt P08913)", "T4 sequence (P08913 whole entry)": "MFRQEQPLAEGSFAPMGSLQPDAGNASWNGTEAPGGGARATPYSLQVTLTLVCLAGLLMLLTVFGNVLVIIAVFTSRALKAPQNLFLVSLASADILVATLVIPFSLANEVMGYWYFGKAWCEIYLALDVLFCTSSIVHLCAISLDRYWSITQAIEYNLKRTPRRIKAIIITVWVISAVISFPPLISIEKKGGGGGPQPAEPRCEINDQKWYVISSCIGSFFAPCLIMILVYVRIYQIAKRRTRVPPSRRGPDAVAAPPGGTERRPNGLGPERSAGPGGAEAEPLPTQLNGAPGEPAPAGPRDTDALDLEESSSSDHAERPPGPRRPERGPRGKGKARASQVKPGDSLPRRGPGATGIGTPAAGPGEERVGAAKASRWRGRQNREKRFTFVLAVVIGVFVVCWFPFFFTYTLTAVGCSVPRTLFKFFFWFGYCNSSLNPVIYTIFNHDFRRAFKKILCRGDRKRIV", "assay": "cAMP secondary messenger assay, agonist format", "type": "cell-based", "details": "read-out: EC50 (μM) Agonist/Opener"}, "[7]": {"target": "T4, Adrenergic Receptor α2A (ADRA2A)", "assay": "cAMP secondary messenger assay, antagonist format", "type": "cell-based", "details": "read-out: IC50 (μM) Antag./Blocker/Inhibitor"}, "[8]": {"target": "Adrenergic Receptor β2 (ADRB2) (Homo sapiens, UniProt P07550)", "sequence (P07550 whole entry)": "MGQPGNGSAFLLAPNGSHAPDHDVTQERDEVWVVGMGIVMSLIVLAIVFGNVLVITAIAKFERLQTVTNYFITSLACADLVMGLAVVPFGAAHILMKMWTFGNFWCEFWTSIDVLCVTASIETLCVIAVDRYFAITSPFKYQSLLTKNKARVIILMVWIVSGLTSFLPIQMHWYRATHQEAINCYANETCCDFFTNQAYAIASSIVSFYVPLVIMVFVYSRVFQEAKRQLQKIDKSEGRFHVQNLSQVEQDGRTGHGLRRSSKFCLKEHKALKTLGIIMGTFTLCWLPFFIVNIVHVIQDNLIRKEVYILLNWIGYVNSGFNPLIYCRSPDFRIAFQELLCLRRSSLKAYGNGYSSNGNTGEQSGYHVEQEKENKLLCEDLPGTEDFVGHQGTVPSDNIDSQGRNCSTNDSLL", "assay": "cAMP secondary messenger assay, agonist format", "type": "cell-based", "details": "read-out: EC50 (μM) Agonist/Opener"}, "[9]": {"target": "Histamine Receptor H1 (HRH1) (Homo sapiens, UniProt P35367)", "assay": "Calcium flux secondary messenger assay, agonist format", "type": "cell-based", "details": "read-out: EC50 (μM) Agonist/Opener"}, "[10]": {"target": "Adenosine Receptor A2A (ADORA2A) (Homo sapiens, UniProt P29274)", "sequence (P29274 whole entry)": "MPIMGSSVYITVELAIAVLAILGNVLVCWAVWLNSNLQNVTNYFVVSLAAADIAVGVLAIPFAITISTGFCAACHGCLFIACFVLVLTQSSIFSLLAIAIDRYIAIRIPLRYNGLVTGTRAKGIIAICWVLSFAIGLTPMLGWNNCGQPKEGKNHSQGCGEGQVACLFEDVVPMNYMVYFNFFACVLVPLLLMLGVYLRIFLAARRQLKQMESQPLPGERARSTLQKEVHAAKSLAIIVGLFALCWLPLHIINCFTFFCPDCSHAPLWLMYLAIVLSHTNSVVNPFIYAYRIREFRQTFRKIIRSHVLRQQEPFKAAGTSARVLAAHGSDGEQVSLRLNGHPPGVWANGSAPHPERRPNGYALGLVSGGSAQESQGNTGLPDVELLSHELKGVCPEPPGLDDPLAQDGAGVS", "assay": "Calcium flux secondary messenger assay, agonist format", "type": "cell-based", "details": "read-out: EC50 (μM) Agonist/Opener"}, "[11]": {"target": "Arginine Vasopressin Receptor 1A (AVPR1A) (Homo sapiens, UniProt P37288)", "sequence (P37288 whole entry)": "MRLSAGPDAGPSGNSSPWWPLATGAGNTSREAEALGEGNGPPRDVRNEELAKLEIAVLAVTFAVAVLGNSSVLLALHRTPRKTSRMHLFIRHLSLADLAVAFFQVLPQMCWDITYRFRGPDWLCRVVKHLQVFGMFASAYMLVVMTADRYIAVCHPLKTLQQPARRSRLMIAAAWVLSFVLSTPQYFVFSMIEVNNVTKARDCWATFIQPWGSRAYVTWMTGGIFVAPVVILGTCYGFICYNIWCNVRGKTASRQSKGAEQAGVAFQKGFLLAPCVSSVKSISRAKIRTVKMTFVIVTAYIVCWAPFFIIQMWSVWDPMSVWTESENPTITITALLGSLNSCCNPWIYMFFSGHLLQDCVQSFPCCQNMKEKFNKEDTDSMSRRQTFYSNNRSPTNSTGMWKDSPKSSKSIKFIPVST", "assay": "Calcium flux secondary messenger assay, antagonist format", "type": "cell-based", "details": "read-out: IC50 (μM) Antag./Blocker/Inhibitor"}, "[12]": {"target": "Cholecystokinin Receptor A (CCKAR) (Homo sapiens, UniProt P32238)", "assay": "Calcium flux secondary messenger assay, agonist format", "type": "cell-based", "details": "read-out: EC50 (μM) Agonist/Opener"}, "[13]": {"target": "Muscarinic acetylcholine Receptor M1 (CHRM1) (Homo sapiens, UniProt P11229)", "assay": "Calcium flux secondary messenger assay, agonist format", "type": "cell-based", "details": "read-out: EC50 (μM) Agonist/Opener"}, "[14]": {"target": "Cannabinoid Receptor 1 (CNR1) (Homo sapiens, UniProt P21554)", "assay": "cAMP secondary messenger assay, agonist format", "type": "cell-based", "details": "read-out: EC50 (μM) Agonist/Opener"}, "[15]": {"target": "Cannabinoid Receptor 2 (CNR2) (Homo sapiens, UniProt P34972)", "assay": "cAMP secondary messenger assay, agonist format", "type": "cell-based", "details": "read-out: EC50 (μM) Agonist/Opener"}, "[16]": {"target": "T5, Dopamine Receptor D1 (DRD1) (Homo sapiens, UniProt P21728)", "T5 sequence (P21728 whole entry)": "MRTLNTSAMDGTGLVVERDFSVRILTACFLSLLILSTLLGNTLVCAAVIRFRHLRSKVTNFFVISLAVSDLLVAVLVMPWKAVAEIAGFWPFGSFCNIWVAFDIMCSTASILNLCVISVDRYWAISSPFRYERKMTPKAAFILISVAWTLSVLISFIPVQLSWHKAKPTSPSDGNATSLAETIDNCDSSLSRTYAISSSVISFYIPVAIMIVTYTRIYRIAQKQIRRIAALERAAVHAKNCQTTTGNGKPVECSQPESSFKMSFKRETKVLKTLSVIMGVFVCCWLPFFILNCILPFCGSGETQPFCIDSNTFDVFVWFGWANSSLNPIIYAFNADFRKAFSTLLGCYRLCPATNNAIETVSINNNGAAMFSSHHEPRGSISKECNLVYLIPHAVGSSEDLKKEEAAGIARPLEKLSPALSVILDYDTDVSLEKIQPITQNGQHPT", "assay": "cAMP secondary messenger assay, agonist format", "type": "cell-based", "details": "read-out: EC50 (μM) Agonist/Opener"}, "[17]": {"target": "T5, Dopamine Receptor D1 (DRD1)", "assay": "cAMP secondary messenger assay, antagonist format", "type": "cell-based", "details": "read-out: IC50 (μM) Antag./Blocker/Inhibitor"}, "[18]": {"target": "Dopamine Receptor D2 (DRD2S) (Homo sapiens, UniProt P14416)", "sequence (P14416 1-414 isoform P14416-2)": "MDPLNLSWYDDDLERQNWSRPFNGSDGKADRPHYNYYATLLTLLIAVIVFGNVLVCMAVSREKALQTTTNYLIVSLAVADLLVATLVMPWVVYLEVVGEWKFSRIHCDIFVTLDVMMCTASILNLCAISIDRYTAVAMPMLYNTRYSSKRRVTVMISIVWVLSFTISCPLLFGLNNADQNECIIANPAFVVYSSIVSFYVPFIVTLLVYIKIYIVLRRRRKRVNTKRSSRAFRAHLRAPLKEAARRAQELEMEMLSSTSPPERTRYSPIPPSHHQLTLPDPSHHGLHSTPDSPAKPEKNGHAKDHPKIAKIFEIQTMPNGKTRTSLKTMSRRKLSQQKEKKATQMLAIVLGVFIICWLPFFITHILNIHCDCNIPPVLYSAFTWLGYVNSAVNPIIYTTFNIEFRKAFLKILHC", "assay": "cAMP secondary messenger assay, agonist format", "type": "cell-based", "details": "read-out: EC50 (μM) Agonist/Opener"}, "[19]": {"target": "Endothelin Receptor Type A (EDNRA) (Homo sapiens, UniProt P25101)", "assay": "Calcium flux secondary messenger assay, agonist format", "type": "cell-based", "details": "read-out: EC50 (μM) Agonist/Opener"}, "[20]": {"target": "T6, Opioid Receptor Mu (OPRM1) (Homo sapiens, UniProt P35372)", "T6 sequence (P35372 whole entry)": "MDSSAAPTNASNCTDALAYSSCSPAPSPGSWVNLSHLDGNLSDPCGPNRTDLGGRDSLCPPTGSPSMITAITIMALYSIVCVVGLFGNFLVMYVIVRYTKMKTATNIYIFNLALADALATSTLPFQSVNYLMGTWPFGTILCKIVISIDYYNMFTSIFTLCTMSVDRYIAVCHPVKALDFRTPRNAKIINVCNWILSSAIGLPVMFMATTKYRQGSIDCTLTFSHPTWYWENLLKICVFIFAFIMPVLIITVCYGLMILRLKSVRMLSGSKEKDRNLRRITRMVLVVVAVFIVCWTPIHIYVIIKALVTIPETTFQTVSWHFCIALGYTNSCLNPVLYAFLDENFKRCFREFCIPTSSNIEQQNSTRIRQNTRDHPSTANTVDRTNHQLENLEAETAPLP", "assay": "cell-based", "details": "cAMP, agonist, read-out: EC50 (μM) Agonist/Opener"}, "[21]": {"target": "T6, Opioid Receptor Mu (OPRM1)", "assay": "cell-based", "details": "cAMP, antagonist, read-out: IC50 (μM) Antag./Blocker/Inhibitor"}, "[22]": {"target": "Nicotinic acetylcholine Receptor α4 β2 (nAChR(a4/b2)) (Homo sapiens, UniProt P17787+P43681)", "assay": "Ion channel assay, blocker format", "type": "cell-based", "details": "read-out: IC50 (μM) Antag./Blocker/Inhibitor"}, "[23]": {"test_system": "Gamma-aminobutyric acid Receptor A (GABAA)", "assay": "Ion channel assay, opener format", "type": "cell-based", "details": "read-out: EC50 (μM) Agonist/Opener"}, "[24]": {"test_system": "Gamma-aminobutyric acid Receptor A (GABAA)", "assay": "Ion channel assay, blocker format", "type": "cell-based", "details": "read-out: IC50 (μM) Antag./Blocker/Inhibitor"}, "KvLQT1/minK [25]": {"target": "T7, KvLQT1/minK (Homo sapiens, UniProt P51787)", "assay": "Ion channel assay, opener format", "type": "cell-based", "details": "read-out: EC50 (μM) Agonist/Opener"}, "KvLQT1/minK [26]": {"target": "T7, KvLQT1/minK", "assay": "Ion channel assay, blocker format", "type": "cell-based", "details": "read-out: IC50 (μM) Antag./Blocker/Inhibitor"}, "[27]": {"target": "T8, N-methyl-D-aspartate (NMDA) Glutamate Receptor 1A/2B (NMDAR (1A/2B)) (Homo sapiens, UniProt Q05586+Q13224)", "T8 sequence (Q13224 27-1484, other chains not shown)": "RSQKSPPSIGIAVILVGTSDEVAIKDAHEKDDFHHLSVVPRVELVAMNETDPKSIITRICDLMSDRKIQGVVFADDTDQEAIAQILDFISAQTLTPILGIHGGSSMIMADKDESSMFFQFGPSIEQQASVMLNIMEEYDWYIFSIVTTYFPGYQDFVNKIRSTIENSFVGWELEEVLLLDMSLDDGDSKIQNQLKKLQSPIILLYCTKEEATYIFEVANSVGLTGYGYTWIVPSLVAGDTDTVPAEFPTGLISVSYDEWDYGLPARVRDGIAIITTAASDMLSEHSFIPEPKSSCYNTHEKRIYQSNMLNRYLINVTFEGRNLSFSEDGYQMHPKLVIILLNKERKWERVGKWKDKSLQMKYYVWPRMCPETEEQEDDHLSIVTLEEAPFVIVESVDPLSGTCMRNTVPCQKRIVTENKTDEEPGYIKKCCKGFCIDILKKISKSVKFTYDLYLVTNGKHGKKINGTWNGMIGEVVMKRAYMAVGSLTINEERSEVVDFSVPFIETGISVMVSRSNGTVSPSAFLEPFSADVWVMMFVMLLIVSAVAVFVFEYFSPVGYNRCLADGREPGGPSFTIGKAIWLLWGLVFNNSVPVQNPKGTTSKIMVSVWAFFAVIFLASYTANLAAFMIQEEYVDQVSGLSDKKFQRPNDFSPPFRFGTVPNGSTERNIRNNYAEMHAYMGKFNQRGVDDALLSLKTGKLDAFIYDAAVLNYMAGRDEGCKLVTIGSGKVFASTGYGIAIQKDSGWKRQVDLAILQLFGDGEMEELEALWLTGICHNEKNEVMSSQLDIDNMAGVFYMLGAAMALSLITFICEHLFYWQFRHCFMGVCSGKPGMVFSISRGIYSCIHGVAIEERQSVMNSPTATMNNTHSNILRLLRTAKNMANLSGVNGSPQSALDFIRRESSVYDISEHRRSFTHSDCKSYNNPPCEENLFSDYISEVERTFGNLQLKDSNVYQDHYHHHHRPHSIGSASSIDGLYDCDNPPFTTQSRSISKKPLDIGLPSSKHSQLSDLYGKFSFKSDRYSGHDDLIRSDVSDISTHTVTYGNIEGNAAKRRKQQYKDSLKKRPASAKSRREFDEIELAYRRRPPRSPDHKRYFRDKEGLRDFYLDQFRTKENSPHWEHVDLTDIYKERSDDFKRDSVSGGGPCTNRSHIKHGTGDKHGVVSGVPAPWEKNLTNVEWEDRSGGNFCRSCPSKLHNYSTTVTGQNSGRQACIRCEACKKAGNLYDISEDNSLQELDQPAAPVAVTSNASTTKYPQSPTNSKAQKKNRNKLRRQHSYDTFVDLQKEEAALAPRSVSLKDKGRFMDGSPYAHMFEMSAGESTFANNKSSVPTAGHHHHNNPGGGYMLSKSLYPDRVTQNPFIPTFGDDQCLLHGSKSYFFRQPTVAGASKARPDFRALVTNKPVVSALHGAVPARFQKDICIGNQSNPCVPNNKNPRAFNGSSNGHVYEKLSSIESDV", "assay": "Ion channel assay, opener format", "type": "cell-based", "details": "read-out: EC50 (μM) Agonist/Opener"}, "[28]": {"target": "T8, N-methyl-D-aspartate (NMDA) Glutamate Receptor 1A/2B (NMDAR (1A/2B))", "assay": "Ion channel assay, blocker format", "type": "cell-based", "details": "read-out: IC50 (μM) Antag./Blocker/Inhibitor"}, "[29]": {"target": "T9, Insulin Receptor (tyrosine kinase) (INSR) (Homo sapiens, UniProt P06213)", "T9 construct": "T7 phage fusion (most assays) or DNA tag for qPCR (the remaining kinases); made in house; host or cells: E. coli (BL21-derived, T7 phage display) or HEK-293", "assay": "Kinase binding assay (KINOMEscan)", "details": "inhibitor, read-out: IC50 (μM) Antag./Blocker/Inhibitor"}, "[30]": {"target": "T10, Vascular endothelial growth factor receptor 2 (KDR tyrosine kinase) (VEGFR2) (Homo sapiens, UniProt P35968)", "T10 construct": "T7 phage fusion (most assays) or DNA tag for qPCR (the remaining kinases); made in house; host or cells: E. coli (BL21-derived, T7 phage display) or HEK-293", "assay": "biochemical", "details": "Binding, inhibitor, read-out: IC50 (μM) Antag./Blocker/Inhibitor"}}, "note": "Where a name gives a salt, the structure may show the parent alone.", "data": [{"smiles": "CN(C)CCc1ccn2ccccc12", "note": "[28-12 oxalate, 2-(indolizin-1-yl)-N, N-dimethylethan-1-amine oxalate]", "values": [{"measurement": "IC50", "setting": "serotonin transporter", "value": "> 30", "unit": "µM"}, {"measurement": "IC50", "setting": "[1]", "value": "> 30", "unit": "µM"}, {"measurement": "IC50", "setting": "[2]", "value": 1.08, "unit": "µM"}, {"measurement": "IC50", "setting": "[3]", "value": 3.28, "unit": "µM"}, {"measurement": "IC50", "setting": "[4]", "value": "> 30", "unit": "µM"}, {"measurement": "EC50", "setting": "[5]", "value": "> 30", "unit": "µM"}, {"measurement": "EC50", "setting": "[6]", "value": "> 30", "unit": "µM"}, {"measurement": "IC50", "setting": "[7]", "value": "> 30", "unit": "µM"}, {"measurement": "EC50", "setting": "[8]", "value": "> 30", "unit": "µM"}, {"measurement": "EC50", "setting": "[9]", "value": "> 30", "unit": "µM"}, {"measurement": "EC50", "setting": "[10]", "value": "> 30", "unit": "µM"}, {"measurement": "IC50", "setting": "[11]", "value": "> 30", "unit": "µM"}, {"measurement": "EC50", "setting": "[12]", "value": "> 30", "unit": "µM"}, {"measurement": "EC50", "setting": "[13]", "value": "> 30", "unit": "µM"}, {"measurement": "EC50", "setting": "[14]", "value": "> 30", "unit": "µM"}, {"measurement": "EC50", "setting": "[15]", "value": "> 30", "unit": "µM"}, {"measurement": "EC50", "setting": "[16]", "value": "> 30", "unit": "µM"}, {"measurement": "IC50", "setting": "[17]", "value": "> 30", "unit": "µM"}, {"measurement": "EC50", "setting": "[18]", "value": "> 30", "unit": "µM"}, {"measurement": "EC50", "setting": "[19]", "value": "> 30", "unit": "µM"}, {"measurement": "EC50", "setting": "[20]", "value": "> 30", "unit": "µM"}, {"measurement": "IC50", "setting": "[21]", "value": "> 30", "unit": "µM"}, {"measurement": "IC50", "setting": "[22]", "value": "> 30", "unit": "µM"}, {"measurement": "EC50", "setting": "[23]", "value": "> 30", "unit": "µM"}, {"measurement": "IC50", "setting": "[24]", "value": "> 30", "unit": "µM"}, {"measurement": "EC50", "setting": "KvLQT1/minK [25]", "value": "> 30", "unit": "µM"}, {"measurement": "IC50", "setting": "KvLQT1/minK [26]", "value": "> 30", "unit": "µM"}, {"measurement": "EC50", "setting": "[27]", "value": "> 30", "unit": "µM"}, {"measurement": "IC50", "setting": "[28]", "value": "> 30", "unit": "µM"}, {"measurement": "IC50", "setting": "[29]", "value": "> 30", "unit": "µM"}, {"measurement": "IC50", "setting": "[30]", "value": "> 30", "unit": "µM"}]}]}
